Results: ChEMBL document CHEMBL4715685, “Synthetic inhibitor leads of human tropomyosin receptor kinase A (hTrkA)” (RSC Med Chem, 2020)
Converted amounts (≈) assume the structure as drawn.

Tests used:
[1] = biological target: T1, High affinity nerve growth factor receptor (Homo sapiens, UniProt P04629)
Description: Inhibition of human TRKA kinase domain by HTRF KinEASE biochemical assay

[2] = biological target: T1, High affinity nerve growth factor receptor; remark: listed apart in the source
Description: Inhibition of human TRKA by FLIPR assay

[3] = biological target: BDNF/NT-3 growth factors receptor (Homo sapiens, UniProt Q16620)
Description: Inhibition of human TRKB by FLIPR assay

[4] = biological target: T1, High affinity nerve growth factor receptor; remark: listed apart in the source
Description: Inhibition of human TRKA at inactive state assessed as inhibition of substrate phosphorylation using fluorescently-labelled peptide as substrate by caliper assay

[5] = biological target: T1, High affinity nerve growth factor receptor; remark: listed apart in the source
Description: Inhibition of human TRKA at active state assessed as inhibition of substrate phosphorylation using fluorescently-labelled peptide as substrate by caliper assay

[6] = biological target: T1, High affinity nerve growth factor receptor; remark: listed apart in the source
Description: Inhibition of human TRKA at inactive state by kinetic based analysis

[7] = biological target: T1, High affinity nerve growth factor receptor; remark: listed apart in the source
Description: Inhibition of human TRKA at active state by kinetic based analysis

in vitro [8] = settings: dog, liver microsomes
Description: Half-life in dog liver microsome

in vitro [9] = settings: cat, liver microsomes
Description: Half-life in cat liver microsome

in vitro [10] = settings: dog, MDCK
Description: Permeability from apical to basolateral side in dog MDCK cells

in vitro [11] = settings: dog, MDCK-MDR1
Description: Permeability from basolateral to apical side in dog MDCK cells

T1 sequence (P04629 whole entry): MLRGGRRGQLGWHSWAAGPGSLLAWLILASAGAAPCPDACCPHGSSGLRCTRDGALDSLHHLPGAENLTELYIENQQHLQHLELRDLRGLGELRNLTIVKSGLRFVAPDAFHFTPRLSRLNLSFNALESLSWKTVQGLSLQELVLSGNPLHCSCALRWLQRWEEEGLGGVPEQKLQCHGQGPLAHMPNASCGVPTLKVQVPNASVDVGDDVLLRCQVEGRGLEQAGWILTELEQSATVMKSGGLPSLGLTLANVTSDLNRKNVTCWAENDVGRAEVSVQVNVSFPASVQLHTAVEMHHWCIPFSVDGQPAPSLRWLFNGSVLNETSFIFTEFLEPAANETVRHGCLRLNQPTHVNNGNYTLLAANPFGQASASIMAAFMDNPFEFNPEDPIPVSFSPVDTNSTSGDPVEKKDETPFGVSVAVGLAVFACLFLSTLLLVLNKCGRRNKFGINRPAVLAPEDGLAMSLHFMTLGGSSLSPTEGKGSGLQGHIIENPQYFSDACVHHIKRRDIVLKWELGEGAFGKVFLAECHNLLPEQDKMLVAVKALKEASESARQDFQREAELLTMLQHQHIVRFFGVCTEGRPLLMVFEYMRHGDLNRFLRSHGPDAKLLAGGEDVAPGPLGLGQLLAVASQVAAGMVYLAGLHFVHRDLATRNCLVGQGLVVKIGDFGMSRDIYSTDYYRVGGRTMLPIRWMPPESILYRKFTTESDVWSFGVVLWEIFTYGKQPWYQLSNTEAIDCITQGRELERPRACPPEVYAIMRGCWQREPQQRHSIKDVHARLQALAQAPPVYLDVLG
BDNF/NT-3 growth factors receptor, sequence (Q16620 whole entry): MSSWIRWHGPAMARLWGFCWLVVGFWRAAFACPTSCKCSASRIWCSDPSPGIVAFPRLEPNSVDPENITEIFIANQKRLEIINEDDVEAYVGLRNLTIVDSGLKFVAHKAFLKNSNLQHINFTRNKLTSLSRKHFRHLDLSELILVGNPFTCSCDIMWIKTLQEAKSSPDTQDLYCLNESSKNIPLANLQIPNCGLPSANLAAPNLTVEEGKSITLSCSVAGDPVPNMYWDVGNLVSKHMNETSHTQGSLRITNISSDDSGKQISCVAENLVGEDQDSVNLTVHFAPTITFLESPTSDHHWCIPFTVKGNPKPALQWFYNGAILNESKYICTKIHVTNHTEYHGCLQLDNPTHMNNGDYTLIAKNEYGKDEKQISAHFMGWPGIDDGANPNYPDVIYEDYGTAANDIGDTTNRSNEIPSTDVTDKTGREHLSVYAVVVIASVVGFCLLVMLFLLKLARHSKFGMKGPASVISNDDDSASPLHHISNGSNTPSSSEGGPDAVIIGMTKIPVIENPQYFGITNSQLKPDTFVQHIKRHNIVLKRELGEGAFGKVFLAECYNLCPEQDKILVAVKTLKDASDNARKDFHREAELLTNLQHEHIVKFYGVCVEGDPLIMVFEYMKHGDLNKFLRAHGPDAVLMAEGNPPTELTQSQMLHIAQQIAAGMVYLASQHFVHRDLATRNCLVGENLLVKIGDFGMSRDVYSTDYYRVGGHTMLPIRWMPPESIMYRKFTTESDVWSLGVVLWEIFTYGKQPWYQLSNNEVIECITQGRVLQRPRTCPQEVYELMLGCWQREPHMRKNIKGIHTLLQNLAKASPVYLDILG
Description for physchem: Kinetic solubility of compound

| Structure (SMILES) | IC50 [1] [nM] | IC50 [2] [nM] | IC50 [3] [nM] | IC50 [4] [nM] | IC50 [5] [nM] | Ki [6] [nM] | Ki [7] [nM] | half-life (in vitro [8]) [h] | half-life (in vitro [9]) [h] | Papp A→B (in vitro [10]) [×10⁻⁶ cm/s] | Papp B→A (in vitro [11]) [×10⁻⁶ cm/s] | solubility kinetic (physchem) [µM] |
| --- | --- | --- | --- | --- | --- | --- | --- | --- | --- | --- | --- | --- |
| COc1ccc(Cl)cc1NC(=O)Nc1ccc2nc(NC(=O)c3ccccc3)sc2c1 | 178 | > 20000 | > 20000 | > 10000 | > 10000 |  |  | 1.25 | 0.933 |  |  | 1.3 (≈ 0.589 µg/mL) |
| O=C(Nc1ccc(N2CCOCC2)cc1N1CCOCC1)c1cccc(Oc2ccccc2)c1 |  |  |  | 94 | 76 |  |  |  |  |  |  |  |
| COc1ccc(-n2ncc3c(=O)n(CC(=O)Nc4cc(C(F)(F)F)ccc4Cl)cnc32)cc1 | 102 | 7500 | > 20000 |  |  |  |  | 2 | 2 | 4.8 | 6.4 | 3.5 (≈ 1.67 µg/mL) |

The remaining compounds from weak to strong by IC50 [1], led by results:

| IC50 [1] [nM] | IC50 [2] [nM] | IC50 [3] [nM] | IC50 [4] [nM] | IC50 [5] [nM] | Ki [6] [nM] | Ki [7] [nM] | half-life (in vitro [8]) [h] | half-life (in vitro [9]) [h] | Papp A→B (in vitro [10]) [×10⁻⁶ cm/s] | Papp B→A (in vitro [11]) [×10⁻⁶ cm/s] | solubility kinetic (physchem) [µM] | Structure (SMILES) |
| --- | --- | --- | --- | --- | --- | --- | --- | --- | --- | --- | --- | --- |
| 47.1 | > 20000 | > 20000 |  |  |  |  | 2 | 2 |  |  | 15.9 (≈ 7.27 µg/mL) | NC(=O)c1ccc(-c2nnn(CC(=O)Nc3cc(C(F)(F)F)ccc3-n3cncn3)n2)cc1 |
| 5.2 | 170 | 15900 | 21 | 45 | 1 | 0.4 | 1.35 | 0.267 | 4.1 | 7.6 | 12.7 (≈ 5.52 µg/mL) | O=C(Nc1ccc(N2CCOCC2)cc1N1CCOCC1)c1cnn(-c2ccccc2)n1 |
